“Also recorded” adds a separate entry of the source.
Legend:
hypoxic IL-6 Tg mice = assay: Chronically hypoxic IL-6 transgenic PAH mouse model; type: in vivo, IL-6 transgenic mice (C57B/6 background)
Method: Pulmonary-specific IL-6 transgenic mice (C57B/6 background) were described previously (Steiner M K et al. Circ Res. 2009, 104, 236-244, 228p following 244). These mice were bred in house, and 12 week old male transgenic mice vs. control littermates were compared. Mice were injected i.p. every 3 days with vehicle control (2.5% DMSO) vs. BRD2889 (5 mg/kg vs. […] Circ Res. 2009, 104, 236-244, 228p following 244).
(§1) Rodent echocardiography: Echocardiography was performed using a 15-45M Hz transthoracic transducer and a Visual Sonics Vevo 3100 system (Fujifilm). Inhaled isoflurane anesthesia was used at 2% in 100% 02 during positioning and hair removal and then decreased to isoflurane 0.8% during imaging.

[1] = tested on: SU5416-hypoxic pulmonary arterial hypertension rats; assay: SU5416-hypoxia pulmonary arterial hypertension rat model, disease-reversal dosing; type: in vivo, Sprague-Dawley rats
Method: Briefly, 10 week old male Sprague-Dawley rats were injected i.p. with 20 mg/kg of SU5416 (Sigma), placed in normobaric hypoxia (10% 02) for 3 weeks and then transferred to normoxia for 2 weeks. During hypoxic exposure, chambers were opened twice a week for cleaning and replenishment of food and water. […] For BRD2889 vs. vehicle control dosing, i.p. injections every 5 days (5 mg/kg) were administered during the final two weeks of normoxia. Oxygen concentrations were continuously monitored with blood gas analyzers.
Measurement of GST activity: The GST activity from lung tissue and PAECs was assayed using GST assay kit (Cayman, MI, USA) per the manufacturer's instructions.
as §1

ISCU [2] = assay: Immunoprecipitation/immunoblot of glutathionylated ISCU in PAECs; type: cell-based, human; parameters: dose or concentration left out as unconfirmed; details: hypoxic PAECs, BRD2889 (24 h)
Method: Immunoblot and densitometry: Cells were lysed in RIPA buffer (Sigma) along with 1× protease inhibitor cocktail (Sigma). Protein lysate was resolved by gradient 4%-15% SDS-PAGE gels and transferred onto a 0.2 μm PVDF membrane (Bio-Rad). Membranes were blocked in 5% non-fat milk in 1×PBST buffer for one hour at room temperature. Later, they were incubated in the presence of the primary antibody overnight at 4° C., and then appropriate HRP-conjugated secondary antibodies (Life Technologies). The following antibodies were used: human LGALS8 (AF1305, RnD Systems), mouse/rat Lgals8 ([…], Abcam), pSTAT1 (ab29045, Abcam) and STAT1 (ab47425, Abcam), GSTP1 (ab153949, Abcam), ISCU (14812-1-AP, Pointech), Glutathione (ab19534, Abcam), HIF2A (NB100-122, Novous), α-Tubulin (CP06, Millipore sigma), and ACTB (sc-47778, Santa Cruz). […] The images were later quantified using AlphaEaseFC software (Alpha Innotech).
Immunoprecipitation: PAECs were transfected with the indicated combinations of siRNAs by Lipofectamine 2000 (Thermo Fisher Scientific) according to the manufacturer's instructions and/or treated with BRD2889 ([…], 24 h). […] After extensive washing, the immunoprecipitated proteins were analyzed by immunoblotting with the indicated antibodies.

PASMCs = assay: RT-qPCR gene expression in PASMCs; type: cell-based, human; details: hypoxia, BRD2889 5 uM
Source text: Cell culture: Primary human pulmonary artery endothelial cells (PAECs) and human pulmonary artery smooth muscle cells (PASMCs) were purchased from Lonza (302-05A, CC-2581). Of note, the same two male donors were the source of all PAECs in the experiments shown. Two additional male donors were the source for all PASMCs in the experiments shown. Cells from these and any donors were characterized by flow cytometry for consistent expression of cell surface markers and by RNA (RT-qPCR) analysis of endothelial and smooth muscle gene expression. PAECs were cultured in EGM-2 media (CC-3121) along with supplements (CC-4133), and PASMCs were cultured in SmGM-2 culture media (Lonza, CC-3182) at 5% CO2 in a humidified incubator.
RT-qPCR analysis: Cells were lysis in 1 ml of QiaZol reagent (Qiagen). Total RNA content was extracted using the RNeasy kit (Qiagen), according to the manufacturer's instructions. Total RNA concentration was determined using a BioTek Synergy multimode plate reader. Messenger RNAs were reverse transcribed to generate cDNA using the Multiscript RT kit (Thermo Fisher Scientific). cDNA for specific gene targets was amplified and quantified via fluorescently-labeled Taqman primer sets and Taqman fast advanced master mix (Thermo Fisher Scientific) using an Applied Biosystems QuantStudio 6 Flex Real-Time PCR System.

PAECs = assay: Cellular apoptosis, caspase-3/7 activity (Caspase-Glo 3/7) in PAECs; type: cell-based, human
Method: The hypoxia chamber (modular incubator chamber) was obtained from Billups-Rothenberg Inc. (Del Mar, Cali) and placed in regulated CO2 incubator at 37° C.
Cellular apoptosis: Caspase-3/7 activity was quantified using the Caspase-Glo 3/7 Assay (Promega), according to manufacturer's instructions. Caspase-3/7 activity was normalized to total protein content determined by BCA method (Thermo Fisher Scientific).

ISCU [3] = assay: Immunoblot and densitometry of ISCU and GSTP1 in PAECs; type: cell-based, human
Method: BRD2889 (1 uM) vs. vehicle control were added, as indicated, and placed into a hypoxia chamber for 24 h. The hypoxia chamber (modular incubator chamber) was obtained from Billups-Rothenberg Inc. (Del Mar, Cali) and placed in regulated CO2 incubator at 37° C.
Immunoblot and densitometry: Cells were lysed in RIPA buffer (Sigma) along with 1× protease inhibitor cocktail (Sigma). Protein lysate was resolved by gradient 4%-15% SDS-PAGE gels and transferred onto a 0.2 μm PVDF membrane (Bio-Rad). Membranes were blocked in 5% non-fat milk in 1×PBST buffer for one hour at room temperature. Later, they were incubated in the presence of the primary antibody overnight at 4° C., and then appropriate HRP-conjugated secondary antibodies (Life Technologies). The following antibodies were used: human LGALS8 (AF1305, RnD Systems), mouse/rat Lgals8 ([…], Abcam), pSTAT1 (ab29045, Abcam) and STAT1 (ab47425, Abcam), GSTP1 (ab153949, Abcam), ISCU (14812-1-AP, Pointech), Glutathione (ab19534, Abcam), HIF2A (NB100-122, Novous), α-Tubulin (CP06, Millipore sigma), and ACTB (sc-47778, Santa Cruz). The immunoreactive bands were visualized with the Chemidoc XRS+ system (Bio-Rad) using SuperSignal West Femto chemiluminescent substrates (Thermo Fisher Scientific). The images were later quantified using AlphaEaseFC software (Alpha Innotech).

[4] = BRD2889 10 mg/kg vs vehicle, 10 days, 10 mg/kg
[5] = BRD2889 5 and 10 mg/kg i.p. every three days
[6] = SU5416-hypoxia rats, vs vehicle control
[7] = SU5416-hypoxia rats, I-BET762 30 mg/kg daily i.p. or BRD2889 5 mg/kg i.p. every 5 days, final 2 weeks
[8] = PAECs, IL-6/sIL-6R + hypoxia, BRD2889 1 uM

## COc1ccc(C#CC2CCCN(C(=O)/C=C/c3cc(OC)c(OC)c(OC)c3)C2=O)cc1 (centres unmarked) [BRD2889, (E)-3-((4-methoxyphenyl)ethynyl)-1-(3-(3,4,5-trimethoxyphenyl)acryloyl)piperidin-2-one]
Hypoxic IL-6 Tg mice; [4]
  heart rate: No significant differences
  left ventricular function (fractional shortening, ejection fraction, posterior wall thickness): No significant differences
Hypoxic IL-6 Tg mice; [5]
  Fulton index (RV/LV+S): dose-dependent reduction; also recorded: reduced
  ISCU in arterioles / CD31+ endothelium: rescued ISCU; also recorded: increased
  RVSP: dose-dependent reduction; also recorded: reduced
  arteriolar muscularization / pulmonary arteriolar remodeling: reduction; also recorded: reduced
  cleaved caspase-3 (CC-3), endothelial apoptosis: reduction; also recorded: decreased
  lung total GST enzyme activity: dose-dependent reduction; also recorded: decreased lung GST activity in a dose-dependent manner
[1]; [6]
  aortic blood pressure (mean arterial pressure, MAP): without significant alterations
  heart rate: without significant alterations
  left ventricular function (LVPW thickness, LVEF, LVFS; echocardiography): no alteration of left ventricular function; also recorded: did not exhibit altered left ventricular function
[1]; SU5416-hypoxia rats, BRD2889 5 mg/kg i.p. every 5 days
  endothelial ISCU (immunofluorescence): increased
[1]; SU5416-hypoxia rats, BRD2889 5 mg/kg i.p. every 5 days, 5 mg/kg
  lung GST activity: reduced; also recorded: decreased
[1]; SU5416-hypoxia rats, BRD2889 vs VC, RT-qPCR
  transcript levels of injury markers of liver (Got, Gpt1) and kidney (Cst3, Lcn2), tissue toxicity: no indication of overt tissue toxicities
[1]; [7]
  Fulton index (RV/LV+S): reducing; also recorded: reduced
  arteriolar muscularization (α-SMA): reducing; also recorded: reduced
  cleaved caspase-3 (CC-3), endothelial apoptosis: reducing; also recorded: decreased
  right ventricular systolic pressure (RVSP): reducing; also recorded: reduced
[1]; three SU5416-hypoxic rats treated with drug
  ascites: accumulation of mild ascites
ISCU [2]
  ISCU glutathionylation (α-GSH immunoblot after α-ISCU pulldown): converse reduction of glutathionylation; also recorded: reversed these findings; also recorded: reversal of the hypoxic induction of ISCU glutathionylation
PASMCs
  ISCU transcript: unaffected by BRD2889
  mTOR transcript: no change in mTOR
PAECs; PAECs, IL-6/sIL-6R + hypoxia
  apoptosis (caspase 3/7 activity): reduced apoptosis; also recorded: reversing
PAECs; hypoxic PAECs with siRNA knockdown of ISCU
  apoptosis (caspase 3/7 activity): did not reverse the hypoxic increase
PAECs; hypoxic PAECs, BRD2889
  apoptosis (caspase 3/7 activity): reversed the increase in apoptosis; also recorded: reversed hypoxic alterations
ISCU [3]; [8]
  GSTP1 expression: without altering GSTP1 expression
  ISCU expression (immunoblot): reversed the decrease in ISCU expression; also recorded: reversed the IL-6/R+hypoxic decrease
ISCU [3]; hypoxic PAECs
  GSTP1 expression: did not affect GSTP1 expression
  ISCU protein levels: reversed hypoxia-dependent reduction of ISCU protein levels; also recorded: ISCU levels were increased; also recorded: reversed hypoxic alterations; also recorded: reversed these findings; also recorded: also reversed the hypoxia-induced reduction of ISCU

Reference: patent US20250288572A1, “COMPOSITIONS AND METHODS FOR TREATING PULMONARY VASCULAR DISEASE” (UNIVERSITY OF PITTSBURGH-OF THE COMMONWEALTH SYSTEM OF …, priority 2022, published 2025)
